Data from patent publication US9730935B2, “Targeting a non-canonical notch signaling pathway for cancer treatment” (The Board of Trustees of the Leland Stanford Junior …, priority 2013, dated 2017).

Legend:
Drosophila muscle tissue = experiment: Western blot of mitochondrial fraction after CCCP treatment
Protocol: (§1) Co-Immunoprecipitation and Western blot analysis. Approximately 25 adult fly thoraces were collected and homogenized in HBS buffer (210 mM Mannitol, 70 mM Sucrose, 5 mM HEPES pH 7.4, 1 mM EGTA) containing protease inhibitor (Sigma). The lysate was centrifuged at 1,300 g for 10 min, and the supernatant was collected and centrifuged again at 13,000 g for 15 min. For co-IP, the cytosolic and the mitochondrial fractions were incubated with anti-GFP conjugated protein G-agarose beads (Upstate) at 4° C. for 2 hours. Beads were washed 3× with PBS for 5 min each. Proteins were eluted and analyzed by WB as described (Wu et al., 2013). For co-IP assays using human NSC and GBM cells, soluble extracts of isolated mitochondrial fractions were incubated with a mixture of anti-human PINK1 (Abcam) and protein G-agarose beads (Upstate). The primary antibodies used were: pS505-dAKT and AKT (Cell Signaling Technology), Actin (Millipore), NICD (DSHB), NDUFS3 (MitoScience), complex IV subunit I (MitoScience), Drp-1 (L. Pallanck), Calnexin (Novus), PDE1 (MitoScience), Tom20 (Santa Cruz), KDEL (Enzo Life Science), Rab5 (Abcam), Rab7 (Abcam), rat anti-hNotch1 (1:200; DSBH). Rabbit anti-dPINK1 was generated as described (Yang et al., 2006).
(§2) Mitochondria purification. Intact mitochondria from fly heads, fly thoraces and cultured cells were purified at described previously (Wu et al., 2013). […]

HEK 293T cells = experiment: as above; type: cell-based, human
Protocol: as §1, §2

[1] = tested on: Drosophila larval brain NBs (N-induced NB expansion); experiment: Pharmacological treatment of N-GOF larvae: ectopic NB formation in larval brain; type: in vivo; conditions: Mdivi-1 5 μM in food, 0.5% DMSO vehicle control, larval brains at 120 hr ALH, PntP1>N-V5
Protocol: Pharmacological treatment of larvae. Mdivi-1 (Enzo Life Science) dissolved in 0.5% DMSO was mixed in instant Drosophila media at 5 μM final concentration. 0.5% DMSO alone was used as vehicle control. Embryos were collected on Mdivi-1 containing food or control food for 6 hrs at 25° C. and allowed to develop further to 120 hr ALH before larval brain dissection and immunostaining.
Immunohistochemistry. For larval brain immunostaining, larvae were dissected in Schneider's medium (Invitrogen) and fixed with 4% formaldehyde in PEM buffer (100 mM PIPES at pH 6.9, 1 mM EGTA, 1 mM MgCl2) for 23 min at room temperature. Immunohistochemistry of TH and mito-GFP in Drosophila brain was performed as described (Wu et al., 2013). […] For thoracic muscle mitochondrial morphology analysis, mito-GFP was expressed in thoracic muscle using the Mhc-Gal4 driver and indirect flight muscles were dissected in PBS and examined under fluorescence confocal microscope. […]

Compound | amount of mitochondrial N (Drosophila muscle tissue) | mitochondrial PINK1 level (Drosophila muscle tissue) | amount of mitochondrial N (HEK 293T cells) | mitochondrial PINK1 level (HEK 293T cells) | N-induced NB expansion / ectopic NB formation and brain tumor formation [1]
N#CC(C#N)=NNc1cccc(Cl)c1 [CCCP] | not affected | increased | not affected | increased | –
COc1cc(-n2c(=S)[nH]c3ccccc3c2=O)c(Cl)cc1Cl [Mdivi-1] | – | – | – | – | attenuated
